Activity calls are given as the source filed them. The rule behind the calls is not given here.
Experiments:
[1] = target: Transcription factor GATA-4 (Homo sapiens) (UniProt P43694); test: Inhibition of GATA4-DNA interaction in HEK293 nuclear extract at 50 to 150 uM after 15 mins by EMSA assay
[2] = target: Transcription factor GATA-4 (Mus musculus) (UniProt Q08369); test: Inhibition of GATA4- DNA interaction in mouse C2C12 cells at 100 uM after 24 hrs by EMSA assay; type: cell-based
HEK293 [3] = test: Cytotoxicity in human HEK293 cells assessed as cell death upto 150 uM; type: cell-based
[4] = target: T1, T-box transcription factor TBX5 (Homo sapiens) (UniProt Q99593); test: Effect on Tbx5 in HEK293 nuclear extract at 50 uM after 15 mins by EMSA assay
T1 sequence (whole entry): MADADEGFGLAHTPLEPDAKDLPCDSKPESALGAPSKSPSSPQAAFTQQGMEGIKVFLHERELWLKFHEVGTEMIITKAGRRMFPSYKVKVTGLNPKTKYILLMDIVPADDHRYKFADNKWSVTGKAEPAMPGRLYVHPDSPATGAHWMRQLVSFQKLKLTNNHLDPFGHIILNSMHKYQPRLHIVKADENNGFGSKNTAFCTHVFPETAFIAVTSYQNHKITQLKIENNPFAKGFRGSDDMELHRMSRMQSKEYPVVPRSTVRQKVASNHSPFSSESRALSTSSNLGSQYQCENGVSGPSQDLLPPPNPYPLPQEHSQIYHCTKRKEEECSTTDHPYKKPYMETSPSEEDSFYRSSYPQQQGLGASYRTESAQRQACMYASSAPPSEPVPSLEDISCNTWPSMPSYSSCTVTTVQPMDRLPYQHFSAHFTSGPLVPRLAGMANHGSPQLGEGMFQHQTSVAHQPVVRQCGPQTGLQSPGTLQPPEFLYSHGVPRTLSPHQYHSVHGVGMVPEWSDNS

HeLa [5] = test: Cytotoxicity in human HeLa cells assessed as cell death upto 150 uM; type: cell-based
[6] = target: Transcription factor GATA-4 (Homo sapiens) (UniProt P43694); test: Inhibition of GATA4-DNA interaction in HEK293 nuclear extract at 150 uM after 15 mins by EMSA assay; type: cell-free
HeLa [7] = test: Cytotoxicity in human HeLa cells assessed as effect on cell proliferation upto 150 uM; type: cell-based
C2C12 [8] = test: Cytotoxicity in mouse C2C12 cells assessed as effect on cell proliferation upto 150 uM; type: cell-based
[9] = target: Transcription factor GATA-4 (Homo sapiens) (UniProt P43694); test: Inhibition of GATA4- mediated BNP promoter activation in HeLa cells at 100 uM after 24 hrs by luciferase reporter gene assay; type: cell-based
HeLa [10] = test: Drug uptake in human HeLa cells after 24 hrs; type: ADME, cell-based
C2C12 [11] = test: Cytotoxicity in mouse C2C12 cells assessed as cell death upto 150 uM; type: cell-based
[12] = target: T2, Nuclear factor of activated T-cells, cytoplasmic 1 (Homo sapiens) (UniProt O95644); test: Effect on NFATc1 in HEK293 nuclear extract at 50 uM after 15 mins by EMSA assay
T2 sequence (whole entry): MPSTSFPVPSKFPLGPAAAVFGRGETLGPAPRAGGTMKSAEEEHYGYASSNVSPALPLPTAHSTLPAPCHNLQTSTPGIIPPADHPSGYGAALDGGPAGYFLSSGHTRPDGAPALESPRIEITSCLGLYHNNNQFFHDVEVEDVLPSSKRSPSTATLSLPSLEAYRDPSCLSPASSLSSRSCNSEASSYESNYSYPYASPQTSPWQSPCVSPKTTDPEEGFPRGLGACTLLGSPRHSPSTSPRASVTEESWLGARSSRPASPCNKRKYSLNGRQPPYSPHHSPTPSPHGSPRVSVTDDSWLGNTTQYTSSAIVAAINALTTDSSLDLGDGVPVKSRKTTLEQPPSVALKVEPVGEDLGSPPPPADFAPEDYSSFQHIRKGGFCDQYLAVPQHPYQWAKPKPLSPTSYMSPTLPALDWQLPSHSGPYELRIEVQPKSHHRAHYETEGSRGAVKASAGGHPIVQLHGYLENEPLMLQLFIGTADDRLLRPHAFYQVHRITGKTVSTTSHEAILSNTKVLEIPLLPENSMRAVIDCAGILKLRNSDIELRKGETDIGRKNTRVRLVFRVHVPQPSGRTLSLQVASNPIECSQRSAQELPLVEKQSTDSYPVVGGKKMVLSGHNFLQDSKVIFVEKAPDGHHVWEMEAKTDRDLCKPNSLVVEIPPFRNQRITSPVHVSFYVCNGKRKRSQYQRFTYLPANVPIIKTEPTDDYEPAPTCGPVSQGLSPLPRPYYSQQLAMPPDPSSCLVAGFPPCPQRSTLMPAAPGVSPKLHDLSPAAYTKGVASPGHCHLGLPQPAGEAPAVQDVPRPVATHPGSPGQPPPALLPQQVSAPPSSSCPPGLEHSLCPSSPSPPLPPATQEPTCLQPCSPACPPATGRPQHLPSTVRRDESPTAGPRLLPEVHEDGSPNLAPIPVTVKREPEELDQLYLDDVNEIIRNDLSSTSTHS

[13] = Lipophilicity, log P of compound; type: physicochemical; settings: octanol/water
[14] = target: Transcription factor GATA-4 (Homo sapiens) (UniProt P43694); test: Inhibition of GATA4-DNA interaction in HEK293 nuclear extract at 50 uM after 15 mins by EMSA assay; type: cell-free
[15] = target: Transcription factor GATA-4 (Homo sapiens) (UniProt P43694); test: Inhibition of GATA4-DNA interaction in HEK293 nuclear extract at 100 uM after 15 mins by EMSA assay; type: cell-free
[16] = target: Transcription factor GATA-4 (Mus musculus) (UniProt Q08369); test: Inhibition of GATA4 in mouse C2C12 cells assessed as myoblast differentiation to myotubes at 100 uM after 48 hrs by immunofluorescence assay in presence of 20 % FBS relative to control; type: cell-based
HEK293 [17] = test: Cytotoxicity in human HEK293 cells assessed as effect on cell proliferation upto 150 uM; type: cell-based
[18] = target: Transcription factor GATA-4 (Mus musculus) (UniProt Q08369); test: Inhibition of GATA4 in mouse C2C12 cells assessed as myoblast differentiation to myotubes at 100 uM after 48 hrs by immunofluorescence assay in presence of 0.5% FBS relative to control; type: cell-based

Transcription factor GATA-4 (Mus musculus), sequence (Q08369 whole entry): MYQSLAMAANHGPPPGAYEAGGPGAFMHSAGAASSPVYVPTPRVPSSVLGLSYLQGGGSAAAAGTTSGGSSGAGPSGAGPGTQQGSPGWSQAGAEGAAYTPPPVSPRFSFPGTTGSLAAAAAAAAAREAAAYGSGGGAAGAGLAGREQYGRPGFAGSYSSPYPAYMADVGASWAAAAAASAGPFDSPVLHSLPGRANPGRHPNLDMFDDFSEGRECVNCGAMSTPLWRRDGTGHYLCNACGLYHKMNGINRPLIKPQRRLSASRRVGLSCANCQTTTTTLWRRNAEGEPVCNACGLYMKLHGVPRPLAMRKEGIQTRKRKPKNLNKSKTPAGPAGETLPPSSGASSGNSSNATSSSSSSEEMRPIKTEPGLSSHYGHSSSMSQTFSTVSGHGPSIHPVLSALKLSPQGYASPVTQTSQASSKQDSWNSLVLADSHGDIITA
Transcription factor GATA-4 (Homo sapiens), sequence (P43694 whole entry): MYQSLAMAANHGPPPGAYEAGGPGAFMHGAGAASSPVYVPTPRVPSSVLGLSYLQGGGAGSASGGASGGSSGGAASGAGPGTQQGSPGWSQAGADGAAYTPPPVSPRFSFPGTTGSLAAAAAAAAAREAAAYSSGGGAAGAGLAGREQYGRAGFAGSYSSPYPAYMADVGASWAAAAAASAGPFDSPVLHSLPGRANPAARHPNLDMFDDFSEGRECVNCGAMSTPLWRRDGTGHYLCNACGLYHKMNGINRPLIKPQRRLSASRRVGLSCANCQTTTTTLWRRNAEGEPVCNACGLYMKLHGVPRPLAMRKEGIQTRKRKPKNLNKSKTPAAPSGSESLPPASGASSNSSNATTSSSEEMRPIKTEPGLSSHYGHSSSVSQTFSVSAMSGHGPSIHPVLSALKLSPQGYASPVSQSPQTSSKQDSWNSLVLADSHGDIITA

Row | inhibition [1] | inhibition [2] | Activity [4] | inhibition [6] | inhibition [9] | Drug uptake (HeLa [10]) | Activity [12] | logP [13] | inhibition [14] | inhibition [15] | inhibition [16] | inhibition [18] | SMILES | Activity (HEK293 [3]) | Activity (HeLa [5]) | Activity (HeLa [7]) | Activity (C2C12 [8]) | Activity (C2C12 [11]) | Activity (HEK293 [17])
1 | Dose-dependent effect | Active | inactive | 70% | inactive | Not Active | inactive | < 0 | Active | Active | Active | Active | O=C(O)c1cc(C(=O)O)cc(S(=O)(=O)NCCO)c1 | Non-toxic | Non-toxic | Non-toxic | Non-toxic | Non-toxic | Non-toxic
2 | Dose-dependent effect | Active | inactive | 70% | 35% | Active | inactive | < 0 | Active | Active | inactive | inactive | Cc1cc(C(=O)O)c(C(=O)O)c(O)n1 | Non-toxic | Non-toxic | Non-toxic | Non-toxic | Non-toxic | Non-toxic
3 | Dose-dependent effect | Active | inactive |  | 35% | Active | inactive | < 0 | 60% | Active | Active | Active | O=C(O)CC(Cc1ccc2c(c1)OCO2)C(=O)O (stereo unspecified) | Non-toxic | Non-toxic | Non-toxic | Non-toxic | Non-toxic | Non-toxic
4 | Dose-dependent effect | Active | inactive | 70% | 16% | Active | inactive | < 0 | Active | Active | inactive | inactive | NC(=O)c1ncn([C@@H]2O[C@H](COP(=O)(O)O)[C@@H](O)[C@H]2O)n1 [RIBAVIRIN MONOPHOSPHATE] | Non-toxic | Non-toxic | Non-toxic | Non-toxic | Non-toxic | Non-toxic

Source: ChEMBL document CHEMBL1681692, “Identification of new GATA4-small molecule inhibitors by structure-based virtual screening” (Bioorg Med Chem, 2011)
